Measured values: patent US10322143B2, “Inhibitors of ADAMTS4 or ADAMTS5 for use in preventing or treating cardiac remodeling and chronic heart failure” (Universitetet i Oslo, priority 2013, dated 2019)

Columns and labels:
Format in all cases: in vivo, rat
ADAMTS4 mRNA = assay: Myocardial ADAMTS4 mRNA expression (qRT-PCR) in aortic banding rats; details: AB-rats treated with PPS, left ventricle, six weeks after AB; normalized to RPL4, relative to vehicle-treated sham; median (interquartile range)
Protocol: (§1) Three days after AB, rats were stratified by the gradient over the stenosis to ensure similar degree of cardiac stress. Two and two stratified rats were randomized to either 6 mg/kg of the sulfated polysaccharide sodium pentosan polysulfate (PPS) (Interfarm AS, Norway) or vehicle (0.9% NaCl) injected subcutaneously every third day. […] Six weeks after AB or sham operation, the rats were examined by echocardiography and postmortem analysis, performed by experienced investigators (IS, JMA) blinded to treatment group.
(§2) In addition, mRNA levels of proteins known to modulate ADAMTS activity or versican function were measured; tissue inhibitor of metalloprotease (TIMP)-3, hyaluronic acid (HA) synthase 1 and 2, and membrane-type (MT)4-MMP, while mRNA levels of ADAMTS1, -4, and versican were quantified in NFB and NCM.
(§3) Total RNA was isolated from the left ventricle in AB rats, neonatal rat cardiomyocytes and fibroblasts (RNeasy mini kit, Qiagen, Valencia, Calif.). […] The results were detected on an ABI PRISM 7900 Sequence Detection System (Applied Biosystems, CA).

[1] = test system: ADAMTS1, -5, -8, versican, aggrecan, HAS-1, HAS-2, TIMP-3 and MT4-MMP mRNA; assay: Myocardial mRNA expression of other ADAMTS, proteoglycans and modulators (qRT-PCR) in aortic banding rats; details: AB-rats, PPS-treatment vs vehicle
Protocol: as §1, §2, §3

TIMP-3 mRNA = TIMP-3 mRNA level (qRT-PCR) in MI rats; details: PPS-treatment
Protocol: At day 0 to 3 (median 2) after surgery, infarct size was quantified by echocardiography using the Vevo2100 system (Visualsonics Inc, Canada) and magnetic resonance imaging (MRi) using a 9.4 T/210 mm/ASR horizontal bore magnet (Agilent Technologies, Inc., USA). Initially, echocardiography was performed to select moderate to large infarcts ranging approximately 40 to 50%. Thereafter, infarct sizes were exactly measured by late-enhancement gadolinium MRi analyses (Bohl S., et al. American Journal of Physiology, 2009; 296 (4): H1200-H1208) and stratified into small infarcts (stratum 1: <43%, stratum 2: 43-48%), and large infarcts (stratum 3: 48-53%, stratum 4: >53%). The rats in each MI stratum and sham group were randomized to receive intervention or control treatment. The intervention group was treated with 6 mg/kg of sodium PPS (Interfarm AS, Norway), while the control group received vehicle (0.9% NaCl), both injected subcutaneously every third day starting from post-operative day 8-10.
The mRNA levels of the ADAMTS versicanases ADAMTS1, -4, -5, -8, and -20 (Shiomi T, et al. Pathology International 2010; 60(7):477-96), versican, aggrecan, syndecan-4, tissue inhibitor metalloprotease (TIMP)-3, and membrane-type (MT)4-MMP, were quantified in rat left ventricle by qRT-PCR, as previously described in Example 1.

## pentosan polysulfate [PPS]
ADAMTS4 mRNA
  ADAMTS4 mRNA level: 1.29 (1.00-6.45)
[1]
  mRNA levels of ADAMTS1, -5, -8, versican, aggrecan, HAS-1, HAS-2, TIMP-3 and MT4-MMP: not affected
TIMP-3 mRNA
  TIMP-3 level: did not change
